According to ChEMBL document CHEMBL4261604, “Design, synthesis and biological evaluation of novel carbamodithioates as anti-proliferative agents against human cancer cells” (Eur J Med Chem, 2018):
Calls of active or inactive are those of the source. No cut-off for these calls is given here.

Legend:
[1] = Stability of the compound in acetonitrile up to 12 hrs by HPLC analysis; type: physicochemical
[2] = Stability of the compound in methanol:water (1:1) up to 12 hrs by HPLC analysis; type: physicochemical
[3] = Drug degradation in methanol after 10 hrs at 50 degC by HPLC analysis; type: physicochemical; conditions: read-out: Drug degradation
SMMC-7721 [4] = assay: Cell cycle arrest in human SMMC7721 cells assessed as accumulation at S phase at 4 uM after 72 hrs by RNase/propidium iodide staining-based flow cytometric analysis (reference value: 7.96%); type: functional
SMMC-7721 [5] = assay: Induction of apoptosis in human SMMC7721 cells assessed as early apoptotic cells at 4 uM after 72 hrs by Alexa Fluor 488 Annexin/propidium iodide staining-based flow cytometric analysis (reference value: 0.70%); type: functional
SMMC-7721 [6] = assay: Cell cycle arrest in human SMMC7721 cells assessed as accumulation at G2/M phase at 8 uM after 72 hrs by RNase/propidium iodide staining-based flow cytometric analysis (reference value: 24.78%); type: functional
A-375 [7] = assay: Antiproliferative activity against human A375 cells assessed as inhibition of cell proliferation at 32 uM after 72 hrs by CCK8 assay; type: functional; conditions: A-375, 72 h
A-375 [8] = assay: Antiproliferative activity against human A375 cells assessed as inhibition of cell proliferation at 16 uM after 72 hrs by CCK8 assay; type: functional; conditions: A-375, 72 h
SMMC-7721 [9] = assay: Cell cycle arrest in human SMMC7721 cells assessed as accumulation at G0/G1 phase at 4 uM after 72 hrs by RNase/propidium iodide staining-based flow cytometric analysis (reference value: 67.26%); type: functional
SMMC-7721 [10] = assay: Induction of apoptosis in human SMMC7721 cells assessed as late apoptotic cells at 8 uM after 72 hrs by Alexa Fluor 488 Annexin/propidium iodide staining-based flow cytometric analysis (reference value: 0.62%); type: functional
SMMC-7721 [11] = assay: Cell cycle arrest in human SMMC7721 cells assessed as accumulation at S phase at 8 uM after 72 hrs by RNase/propidium iodide staining-based flow cytometric analysis (reference value: 7.96%); type: functional
A549 = assay: cells; conditions: Homo sapiens, A549, 72 h
Description: Antiproliferative activity against human A549 cells after 72 hrs by CCK8 assay

SMMC-7721 [12] = assay: Induction of apoptosis in human SMMC7721 cells assessed as late apoptotic cells at 4 uM after 72 hrs by Alexa Fluor 488 Annexin/propidium iodide staining-based flow cytometric analysis (reference value: 0.62%); type: functional
SMMC-7721 [13] = assay: Induction of apoptosis in human SMMC7721 cells assessed as viable cells at 8 uM after 72 hrs by Alexa Fluor 488 Annexin/propidium iodide staining-based flow cytometric analysis (reference value: 91.92%); type: functional; conditions: SMMC-7721, 72 h, read-out: Activity
SMMC-7721 [14] = assay: Induction of apoptosis in human SMMC7721 cells assessed as viable cells at 4 uM after 72 hrs by Alexa Fluor 488 Annexin/propidium iodide staining-based flow cytometric analysis (reference value: 91.92%); type: functional; conditions: SMMC-7721, 72 h, read-out: Activity
SMMC-7721 [15] = assay: Induction of apoptosis in human SMMC7721 cells assessed as necrotic cells at 8 uM after 72 hrs by Alexa Fluor 488 Annexin/propidium iodide staining-based flow cytometric analysis (reference value: […]); type: functional
SMMC-7721 [16] = assay: Cell cycle arrest in human SMMC7721 cells assessed as accumulation at G0/G1 phase at 8 uM after 72 hrs by RNase/propidium iodide staining-based flow cytometric analysis (reference value: 67.26%); type: functional
SMMC-7721 [17] = assay: Antiproliferative activity against human SMMC7721 cells assessed as inhibition of cell proliferation at 16 uM after 72 hrs by CCK8 assay; type: functional; conditions: SMMC-7721, 72 h
SMMC-7721 [18] = assay: Antiproliferative activity against human SMMC7721 cells assessed as inhibition of cell proliferation at 32 uM after 72 hrs by CCK8 assay; type: functional; conditions: SMMC-7721, 72 h
SMMC-7721 [19] = assay: Cell cycle arrest in human SMMC7721 cells assessed as accumulation at G2/M phase at 4 uM after 72 hrs by RNase/propidium iodide staining-based flow cytometric analysis (reference value: 24.78%); type: functional
SMMC-7721 [20] = assay: Antiproliferative activity against human SMMC7721 cells after 72 hrs by CCK8 assay; type: functional, cell-based; conditions: SMMC-7721, 72 h
SMMC-7721 [21] = assay: Induction of apoptosis in human SMMC7721 cells assessed as early apoptotic cells at 8 uM after 72 hrs by Alexa Fluor 488 Annexin/propidium iodide staining-based flow cytometric analysis (reference value: 0.70%); type: functional
HeLa = assay: Antiproliferative activity against human HeLa cells after 72 hrs by CCK8 assay; type: functional, cell-based
SMMC-7721 [22] = assay: Inhibition of colony formation in human SMMC7721 cells at 2 to 8 uM after 7 days by crystal violet staining-based assay; type: functional, cell-based
A-375 [23] = assay: Antiproliferative activity against human A375 cells after 72 hrs by CCK8 assay; type: functional, cell-based; conditions: A-375, 72 h
HCT-116 = assay: cells; conditions: Homo sapiens, HCT-116, 72 h
Description: Antiproliferative activity against human HCT116 cells after 72 hrs by CCK8 assay

SMMC-7721 [24] = assay: Induction of apoptosis in human SMMC7721 cells assessed as necrotic cells at 4 uM after 72 hrs by Alexa Fluor 488 Annexin/propidium iodide staining-based flow cytometric analysis (reference value: […]); type: functional

Q: Which Stability [1] does the source give for `CC(=O)NCCSC(=S)NCCCC[S+](C)[O-]` (stereo unspecified) here?
A: Stable

Q: And the Stability [2]?
A: Stable

Q: Which Stability [1] does the source give for `COc1ccc(SC(=S)NCCCC[S+](C)[O-])cc1` (stereo unspecified) here?
A: Unstable

Q: And the degraded at 10 h [3]?
A: < 6%

Q: What about the Stability [2] of the same compound?
A: Unstable

Q: For `COc1ccc(SC(=S)NCC/C=C/[S+](C)[O-])cc1` (stereo unspecified), which Stability [1] is on record?
A: Unstable

Q: What about the degraded at 10 h [3] of the same compound?
A: 25%

Q: What about the Stability [2] of the same compound?
A: Unstable

Q: What does the source list for `CC(=O)NCCSC(=S)NCC/C=C/[S+](C)[O-]` (stereo unspecified)?
A: Stability [1]: Stable; Stability [2]: Stable

Q: For `C[S+]([O-])/C=C/CCN=C=S` (stereo unspecified), which degraded at 10 h [3] is on record?
A: 60%

Q: With `C[S+]([O-])CCCCN=C=S` (stereo unspecified) [SULFORAPHANE] as the compound, how does the Activity (SMMC-7721 [4]) read?
A: 5.41%

Q: What about the Activity (SMMC-7721 [5]) of the same compound?
A: 4.66%

Q: And the Activity (SMMC-7721 [6])?
A: 28.35%

Q: What about the inhibition at 32 µM (A-375 [7]) of the same compound?
A: 77.3%

Q: What about the inhibition at 16 µM (A-375 [8]) of the same compound?
A: 54%

Q: And the Activity (SMMC-7721 [9])?
A: 68.06%

Q: And the Activity (SMMC-7721 [10])?
A: 9.09%

Q: And the Activity (SMMC-7721 [11])?
A: 5.46%

Q: And the IC50 (A549)?
A: 11.9 µM

Q: And the Activity (SMMC-7721 [12])?
A: 2.82%

Q: And the viability at 8 µM (SMMC-7721 [13])?
A: 66.9%

Q: What about the viability at 4 µM (SMMC-7721 [14]) of the same compound?
A: 88.4%

Q: What about the Activity (SMMC-7721 [15]) of the same compound?
A: 9.59%

Q: And the Activity (SMMC-7721 [16])?
A: 66.19%

Q: What about the degraded at 10 h [3] of the same compound?
A: 60%

Q: And the inhibition at 16 µM (SMMC-7721 [17])?
A: 80.5%

Q: What about the inhibition at 32 µM (SMMC-7721 [18]) of the same compound?
A: 88.3%

Q: And the Activity (SMMC-7721 [19])?
A: 26.8%

Q: And the IC50 (SMMC-7721 [20])?
A: 7.87 µM

Q: And the Activity (SMMC-7721 [21])?
A: 14.43%

Q: And the IC50 (HeLa)?
A: 66.1 µM

Q: And the inhibition (SMMC-7721 [22])?
A: Active

Q: What about the IC50 (A-375 [23]) of the same compound?
A: 24.5 µM

Q: And the IC50 (HCT-116)?
A: 36.7 µM

Q: And the Activity (SMMC-7721 [24])?
A: 4.14%
